Measurements reported in ChEMBL document CHEMBL1938312, “Design and combinatorial synthesis of a novel kinase-focused library using click chemistry-based fragment assembly” (Bioorg Med Chem Lett, 2012).
Activity calls are given as the source filed them.

Key:
[1] = biological target: 3-phosphoinositide-dependent protein kinase 1 (Homo sapiens) (UniProt O15530); assay: Inhibition of PDK1 at 10 uM by colorimetric analysis
[2] = biological target: T1, Serine/threonine-protein kinase 4 (Homo sapiens) (UniProt Q13043); assay: Inhibition of MST1 at 10 uM by colorimetric analysis
T1 sequence (whole entry): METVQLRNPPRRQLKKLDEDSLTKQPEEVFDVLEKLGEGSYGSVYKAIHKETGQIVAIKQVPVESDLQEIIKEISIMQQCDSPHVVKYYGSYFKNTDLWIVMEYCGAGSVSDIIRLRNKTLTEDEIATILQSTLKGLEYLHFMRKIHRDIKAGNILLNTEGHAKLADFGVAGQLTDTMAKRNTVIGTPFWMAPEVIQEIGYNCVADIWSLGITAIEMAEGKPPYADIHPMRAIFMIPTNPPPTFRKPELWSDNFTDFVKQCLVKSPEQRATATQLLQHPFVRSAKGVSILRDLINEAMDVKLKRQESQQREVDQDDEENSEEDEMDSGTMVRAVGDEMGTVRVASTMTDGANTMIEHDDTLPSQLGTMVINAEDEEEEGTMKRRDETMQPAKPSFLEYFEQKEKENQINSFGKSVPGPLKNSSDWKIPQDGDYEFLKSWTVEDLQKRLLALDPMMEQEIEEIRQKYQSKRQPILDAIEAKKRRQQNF

[3] = biological target: Rho-associated protein kinase 1 (Homo sapiens) (UniProt Q13464); assay: Inhibition of ROCK1 at 10 uM by colorimetric analysis
Sequence of Rho-associated protein kinase 1 (Homo sapiens) (Q13464 2-1354 limits assumed): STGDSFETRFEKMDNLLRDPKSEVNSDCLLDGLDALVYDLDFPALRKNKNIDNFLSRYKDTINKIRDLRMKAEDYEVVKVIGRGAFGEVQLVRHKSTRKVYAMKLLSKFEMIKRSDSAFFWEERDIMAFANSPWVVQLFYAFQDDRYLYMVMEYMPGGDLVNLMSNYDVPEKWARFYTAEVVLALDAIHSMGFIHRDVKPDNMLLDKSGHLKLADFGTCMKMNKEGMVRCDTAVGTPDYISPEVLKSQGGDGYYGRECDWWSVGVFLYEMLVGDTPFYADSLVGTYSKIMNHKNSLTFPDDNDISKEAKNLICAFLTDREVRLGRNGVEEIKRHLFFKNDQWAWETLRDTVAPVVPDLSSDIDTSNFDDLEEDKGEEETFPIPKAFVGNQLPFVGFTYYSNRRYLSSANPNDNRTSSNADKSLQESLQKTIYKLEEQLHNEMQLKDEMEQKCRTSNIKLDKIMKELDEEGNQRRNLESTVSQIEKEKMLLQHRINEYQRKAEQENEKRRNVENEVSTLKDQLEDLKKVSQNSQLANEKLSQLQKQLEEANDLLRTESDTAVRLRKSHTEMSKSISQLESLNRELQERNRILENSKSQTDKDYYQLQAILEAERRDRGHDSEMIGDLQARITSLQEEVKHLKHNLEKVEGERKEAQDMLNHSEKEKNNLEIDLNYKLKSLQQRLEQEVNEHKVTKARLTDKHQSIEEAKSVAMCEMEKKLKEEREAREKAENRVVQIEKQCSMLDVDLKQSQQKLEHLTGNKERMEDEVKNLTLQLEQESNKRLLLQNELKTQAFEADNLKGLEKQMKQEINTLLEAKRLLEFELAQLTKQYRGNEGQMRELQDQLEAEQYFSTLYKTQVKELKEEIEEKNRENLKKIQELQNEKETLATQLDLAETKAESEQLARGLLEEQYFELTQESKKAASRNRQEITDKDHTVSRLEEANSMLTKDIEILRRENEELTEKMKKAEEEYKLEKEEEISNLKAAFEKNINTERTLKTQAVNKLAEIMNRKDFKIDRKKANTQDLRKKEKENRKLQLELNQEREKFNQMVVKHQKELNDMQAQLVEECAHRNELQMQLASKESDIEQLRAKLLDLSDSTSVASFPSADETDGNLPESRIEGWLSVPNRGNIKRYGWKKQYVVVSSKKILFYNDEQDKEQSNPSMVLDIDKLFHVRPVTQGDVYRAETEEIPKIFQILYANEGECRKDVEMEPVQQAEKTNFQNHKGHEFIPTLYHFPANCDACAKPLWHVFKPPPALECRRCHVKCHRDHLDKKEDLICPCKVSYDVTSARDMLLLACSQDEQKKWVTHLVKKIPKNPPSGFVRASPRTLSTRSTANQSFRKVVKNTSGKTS

[4] = biological target: T2, Serine/threonine-protein kinase D2 (Homo sapiens) (UniProt Q9BZL6); assay: Inhibition of PKD2 at 10 uM by colorimetric analysis
T2 sequence (whole entry): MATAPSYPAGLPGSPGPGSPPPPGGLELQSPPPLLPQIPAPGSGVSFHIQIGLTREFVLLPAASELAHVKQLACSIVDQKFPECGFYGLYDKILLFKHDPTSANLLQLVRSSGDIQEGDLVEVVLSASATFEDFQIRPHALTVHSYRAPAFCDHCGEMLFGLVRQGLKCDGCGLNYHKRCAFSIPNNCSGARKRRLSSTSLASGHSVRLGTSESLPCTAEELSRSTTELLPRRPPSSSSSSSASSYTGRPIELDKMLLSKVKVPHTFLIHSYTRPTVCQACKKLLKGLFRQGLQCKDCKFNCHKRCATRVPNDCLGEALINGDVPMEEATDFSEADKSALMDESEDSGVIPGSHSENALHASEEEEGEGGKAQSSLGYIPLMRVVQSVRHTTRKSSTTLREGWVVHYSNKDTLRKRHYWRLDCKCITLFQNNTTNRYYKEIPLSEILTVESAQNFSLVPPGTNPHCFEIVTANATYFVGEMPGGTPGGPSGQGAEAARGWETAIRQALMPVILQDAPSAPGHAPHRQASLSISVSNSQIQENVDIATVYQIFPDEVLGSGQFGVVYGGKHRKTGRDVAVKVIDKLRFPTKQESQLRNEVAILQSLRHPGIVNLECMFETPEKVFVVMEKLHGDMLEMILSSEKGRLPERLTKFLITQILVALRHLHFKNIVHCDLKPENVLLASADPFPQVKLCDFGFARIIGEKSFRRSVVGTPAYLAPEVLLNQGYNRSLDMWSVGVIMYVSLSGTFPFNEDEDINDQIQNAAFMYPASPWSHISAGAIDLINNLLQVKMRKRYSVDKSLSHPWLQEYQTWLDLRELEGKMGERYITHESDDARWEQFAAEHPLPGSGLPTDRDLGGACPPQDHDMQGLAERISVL

[5] = biological target: T3, Serine/threonine-protein kinase Nek2 (Homo sapiens) (UniProt P51955); assay: Inhibition of NEK2 at 10 uM by colorimetric analysis
T3 sequence (whole entry): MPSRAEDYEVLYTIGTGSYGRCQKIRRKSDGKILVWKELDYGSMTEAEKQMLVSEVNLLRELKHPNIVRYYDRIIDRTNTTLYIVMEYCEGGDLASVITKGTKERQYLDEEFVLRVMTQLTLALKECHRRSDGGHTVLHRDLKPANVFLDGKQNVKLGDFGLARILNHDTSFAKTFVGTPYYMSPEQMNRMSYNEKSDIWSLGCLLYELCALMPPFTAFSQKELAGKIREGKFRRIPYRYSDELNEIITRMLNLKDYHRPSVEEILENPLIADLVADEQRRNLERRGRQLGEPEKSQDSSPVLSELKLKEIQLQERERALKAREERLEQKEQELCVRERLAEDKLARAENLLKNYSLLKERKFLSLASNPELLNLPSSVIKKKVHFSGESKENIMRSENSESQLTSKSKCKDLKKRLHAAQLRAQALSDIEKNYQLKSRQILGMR

[6] = biological target: Ribosomal protein S6 kinase beta-1 (Homo sapiens) (UniProt P23443); assay: Inhibition of p70S6K at 10 uM by colorimetric analysis
Sequence of Ribosomal protein S6 kinase beta-1 (Homo sapiens) (P23443 whole entry, looked up): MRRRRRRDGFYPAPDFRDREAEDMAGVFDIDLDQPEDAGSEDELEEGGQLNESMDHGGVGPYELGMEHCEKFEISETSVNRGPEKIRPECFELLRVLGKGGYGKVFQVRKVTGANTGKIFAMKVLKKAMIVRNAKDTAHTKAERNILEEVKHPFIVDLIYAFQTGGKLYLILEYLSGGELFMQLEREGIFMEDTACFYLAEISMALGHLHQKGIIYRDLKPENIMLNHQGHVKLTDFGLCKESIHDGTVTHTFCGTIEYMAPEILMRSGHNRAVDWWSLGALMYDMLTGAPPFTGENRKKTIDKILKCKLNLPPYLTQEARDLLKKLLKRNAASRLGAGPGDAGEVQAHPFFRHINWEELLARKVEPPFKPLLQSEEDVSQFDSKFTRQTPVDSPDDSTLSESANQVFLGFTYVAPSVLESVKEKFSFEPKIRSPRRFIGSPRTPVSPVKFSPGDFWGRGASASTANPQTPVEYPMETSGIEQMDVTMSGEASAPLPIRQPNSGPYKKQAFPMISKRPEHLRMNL

[7] = biological target: 5'-AMP-activated protein kinase subunit gamma-1 (Homo sapiens) (UniProt P54619); assay: Inhibition of AMPKgamma1 at 10 uM by colorimetric analysis
Sequence of 5'-AMP-activated protein kinase subunit gamma-1 (Homo sapiens) (P54619 whole entry): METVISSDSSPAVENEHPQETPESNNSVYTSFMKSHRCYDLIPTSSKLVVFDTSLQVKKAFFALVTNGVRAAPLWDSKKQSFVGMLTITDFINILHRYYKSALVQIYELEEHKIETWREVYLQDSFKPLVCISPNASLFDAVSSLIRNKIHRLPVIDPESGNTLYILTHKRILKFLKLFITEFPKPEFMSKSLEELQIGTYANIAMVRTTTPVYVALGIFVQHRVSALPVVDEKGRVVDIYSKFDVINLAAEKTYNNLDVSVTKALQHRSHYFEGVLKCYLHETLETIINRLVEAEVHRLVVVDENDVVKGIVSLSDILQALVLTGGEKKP

[8] = biological target: Receptor-type tyrosine-protein kinase FLT3 (Homo sapiens) (UniProt P36888); assay: Inhibition of FLT3 at 10 uM by colorimetric analysis
Sequence of Receptor-type tyrosine-protein kinase FLT3 (Homo sapiens) (P36888 whole entry): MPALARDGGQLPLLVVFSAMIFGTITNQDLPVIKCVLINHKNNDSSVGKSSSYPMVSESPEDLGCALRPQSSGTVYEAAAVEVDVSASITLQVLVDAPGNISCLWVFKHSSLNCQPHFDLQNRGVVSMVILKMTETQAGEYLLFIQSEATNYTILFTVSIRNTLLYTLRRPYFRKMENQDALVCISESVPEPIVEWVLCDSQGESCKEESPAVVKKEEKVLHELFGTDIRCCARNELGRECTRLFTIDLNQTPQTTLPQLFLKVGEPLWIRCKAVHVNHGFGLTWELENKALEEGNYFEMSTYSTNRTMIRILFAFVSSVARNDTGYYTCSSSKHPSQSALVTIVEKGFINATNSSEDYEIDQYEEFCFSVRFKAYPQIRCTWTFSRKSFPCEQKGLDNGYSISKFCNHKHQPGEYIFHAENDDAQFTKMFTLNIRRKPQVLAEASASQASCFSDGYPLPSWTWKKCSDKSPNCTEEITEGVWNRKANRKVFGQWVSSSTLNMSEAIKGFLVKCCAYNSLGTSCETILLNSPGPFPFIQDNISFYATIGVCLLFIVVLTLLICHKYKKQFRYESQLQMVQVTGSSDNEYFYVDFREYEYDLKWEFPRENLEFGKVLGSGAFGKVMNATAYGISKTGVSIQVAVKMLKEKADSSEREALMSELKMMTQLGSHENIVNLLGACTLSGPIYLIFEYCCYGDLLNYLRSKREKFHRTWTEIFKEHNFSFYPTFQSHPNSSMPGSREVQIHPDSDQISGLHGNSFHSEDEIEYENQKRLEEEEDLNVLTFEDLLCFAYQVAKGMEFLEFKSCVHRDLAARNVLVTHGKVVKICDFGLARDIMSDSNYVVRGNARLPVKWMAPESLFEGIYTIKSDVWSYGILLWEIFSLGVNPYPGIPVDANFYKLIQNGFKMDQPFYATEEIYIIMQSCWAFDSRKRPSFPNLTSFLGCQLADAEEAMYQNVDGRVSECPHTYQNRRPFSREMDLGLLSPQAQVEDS

Measured: inhibition

Sequence of 3-phosphoinositide-dependent protein kinase 1 (Homo sapiens) (O15530 whole entry, looked up): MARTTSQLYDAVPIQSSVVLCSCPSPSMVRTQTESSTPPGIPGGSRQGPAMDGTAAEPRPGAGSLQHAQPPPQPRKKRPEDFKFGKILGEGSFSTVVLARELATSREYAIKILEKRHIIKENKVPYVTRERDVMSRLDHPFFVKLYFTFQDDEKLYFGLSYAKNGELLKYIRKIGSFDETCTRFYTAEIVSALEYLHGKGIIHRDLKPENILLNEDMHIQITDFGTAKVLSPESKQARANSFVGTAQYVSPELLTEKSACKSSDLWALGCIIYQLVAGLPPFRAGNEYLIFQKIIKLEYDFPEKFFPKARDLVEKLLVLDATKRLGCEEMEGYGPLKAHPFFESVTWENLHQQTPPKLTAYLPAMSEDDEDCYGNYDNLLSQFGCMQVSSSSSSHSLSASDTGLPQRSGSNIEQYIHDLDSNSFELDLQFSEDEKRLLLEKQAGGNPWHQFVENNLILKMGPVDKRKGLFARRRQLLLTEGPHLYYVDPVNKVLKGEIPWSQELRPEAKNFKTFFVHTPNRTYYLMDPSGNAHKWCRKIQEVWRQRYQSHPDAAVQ

Clc1cccc(-n2cc(-c3ccncc3)nn2)c1
active: all assays above

Clc1ccc(-n2nncc2-c2ccncc2)cc1
active: all assays above

Clc1ccc(-n2cc(-c3ccncc3)nn2)cc1
active: all assays above

Clc1cccc(-n2nncc2-c2ccncc2)c1
active: all assays above
